Like-named read-outs stand apart in the source and are kept apart here.
Legend:
Assay type in all cases: cell-based
human M4 receptor = human M4 receptor (Homo sapiens (Human), UniProt P08173); assay: Aequorin calcium flux assay, reversal of EC80 acetylcholine response, M4
Procedure: (§1) CHO-K1 cells stably expressing human M1 receptor with aequorin (Perkin Elmer) were grown in F12 media (Gibco) containing 10% FBS (ATCC), 0.4 mg/mL geneticin (Sigma-Aldrich) and 0.25 mg/mL Zeocin (Invitrogen). Cells were grown as per the manufacturer's protocol. For compound testing, cells were grown to confluency and detached gently with Accutase (Sigma-Aldrich) followed by centrifugation for 5 min at 150×g. Cells were then re-suspended in assay buffer (i.e. DMEM/F-12 HEPES without phenol red (Invitrogen) with 0.1% BSA (Sigma-Aldrich)) at a density of 5×10^6 cells/ml. Under sterile conditions, 5 μM coelenterazine (Invitrogen) was added to the cells, mixed, then incubated at room temperature protected from light, with gentle agitation, for 4 h.
(§2) Primary compound plates were prepared in 100% DMSO in opaque 96-well plates (VWR) and serially diluted in half log increments. Secondary compound plates were prepared at 3× concentration in assay buffer. Compounds were added to white, clear bottom tissue culture treated 96-well plates (Fisher Scientific). Coelenterazine-loaded cells were then added at 5×10^5 cells/well.
(§3) Compounds and cells were incubated at room temperature for 30 min in the dark. Acetylcholine at the EC80 concentration was added and calcium flux measured using a FlexStation 3 (Molecular Devices). Sigmoidal dose-response curves were generated by measuring luminescence over 40 sec and calculating the area under the curve. Dose response curves and IC50 values were generated using Prism (GraphPad). Compounds were tested at a final concentration range of 100 pM to 10 μM in 0.1% DMSO.
(§4) CHO-K1 cells stably expressing human M2, M3 and M4 receptors, respectively, with aequorin (Perkin Elmer) were used to assess a test compound's ability to dose-dependently reverse the EC80 acetylcholine response. The IC50 of the compounds was calculated from the dose response curve.

human M2 receptor = human M2 receptor (Homo sapiens (Human), UniProt P08172); assay: Aequorin calcium flux assay, reversal of EC80 acetylcholine response, M2
human M2 receptor, sequence (P08172 whole entry): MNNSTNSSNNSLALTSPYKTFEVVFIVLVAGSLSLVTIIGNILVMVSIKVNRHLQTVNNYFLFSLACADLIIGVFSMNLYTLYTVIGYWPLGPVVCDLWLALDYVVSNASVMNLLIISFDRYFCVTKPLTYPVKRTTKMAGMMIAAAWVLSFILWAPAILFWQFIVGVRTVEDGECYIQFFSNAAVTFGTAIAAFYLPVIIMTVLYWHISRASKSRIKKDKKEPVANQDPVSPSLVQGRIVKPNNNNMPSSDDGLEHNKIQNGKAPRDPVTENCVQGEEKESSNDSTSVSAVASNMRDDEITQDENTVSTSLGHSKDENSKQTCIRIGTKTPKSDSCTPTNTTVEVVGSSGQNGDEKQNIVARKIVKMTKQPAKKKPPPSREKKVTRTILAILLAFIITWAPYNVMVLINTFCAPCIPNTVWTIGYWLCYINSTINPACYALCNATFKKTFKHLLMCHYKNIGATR
Procedure: as §1, §2, §3, §4

human M3 receptor = human M3 receptor (Homo sapiens (Human), UniProt P20309); assay: Aequorin calcium flux assay, reversal of EC80 acetylcholine response, M3
human M3 receptor, sequence (P20309 whole entry, looked up): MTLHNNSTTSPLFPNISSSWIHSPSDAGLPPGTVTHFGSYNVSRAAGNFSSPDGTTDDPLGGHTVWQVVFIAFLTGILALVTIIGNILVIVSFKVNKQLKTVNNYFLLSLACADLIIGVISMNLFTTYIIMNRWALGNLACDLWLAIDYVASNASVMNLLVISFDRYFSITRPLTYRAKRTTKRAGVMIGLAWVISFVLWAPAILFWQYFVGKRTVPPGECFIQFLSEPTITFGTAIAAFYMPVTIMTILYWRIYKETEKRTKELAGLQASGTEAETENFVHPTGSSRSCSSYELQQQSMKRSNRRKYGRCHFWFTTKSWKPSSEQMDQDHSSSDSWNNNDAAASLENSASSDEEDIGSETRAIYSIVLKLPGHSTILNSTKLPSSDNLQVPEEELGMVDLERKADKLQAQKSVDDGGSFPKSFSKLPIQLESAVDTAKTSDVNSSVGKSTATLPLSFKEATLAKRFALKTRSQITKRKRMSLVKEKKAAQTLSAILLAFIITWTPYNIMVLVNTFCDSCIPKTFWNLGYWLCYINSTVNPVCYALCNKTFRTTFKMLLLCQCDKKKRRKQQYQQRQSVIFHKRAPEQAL
Procedure: as §1, §2, §3, §4

human M1 receptor = human M1 receptor (Homo sapiens (Human), UniProt P11229); assay: In vitro functional assay of muscarinic acetylcholine receptor activity, aequorin calcium flux, reversal of EC80 acetylcholine
human M1 receptor, sequence (P11229 whole entry): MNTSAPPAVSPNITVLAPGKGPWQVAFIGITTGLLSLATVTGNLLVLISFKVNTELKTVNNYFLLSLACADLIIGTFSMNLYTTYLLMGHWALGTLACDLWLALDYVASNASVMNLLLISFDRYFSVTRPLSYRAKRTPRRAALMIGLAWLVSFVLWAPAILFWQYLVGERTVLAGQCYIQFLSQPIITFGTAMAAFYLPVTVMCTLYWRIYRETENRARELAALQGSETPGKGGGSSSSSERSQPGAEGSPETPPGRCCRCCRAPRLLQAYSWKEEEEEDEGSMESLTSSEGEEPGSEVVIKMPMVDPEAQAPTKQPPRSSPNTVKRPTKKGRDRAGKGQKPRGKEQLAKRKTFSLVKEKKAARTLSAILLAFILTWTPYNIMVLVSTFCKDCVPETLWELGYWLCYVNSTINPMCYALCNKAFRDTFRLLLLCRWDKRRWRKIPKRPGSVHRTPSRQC
Procedure: as §1, §2, §3

[1] = CHO-K1 cells expressing human M2 receptor with aequorin, acetylcholine at EC80, read-out: M2 IC50
[2] = CHO-K1 cells expressing human M1 receptor with aequorin, acetylcholine at EC80, read-out: M1 IC50

human M4 receptor, sequence (P08173 whole entry): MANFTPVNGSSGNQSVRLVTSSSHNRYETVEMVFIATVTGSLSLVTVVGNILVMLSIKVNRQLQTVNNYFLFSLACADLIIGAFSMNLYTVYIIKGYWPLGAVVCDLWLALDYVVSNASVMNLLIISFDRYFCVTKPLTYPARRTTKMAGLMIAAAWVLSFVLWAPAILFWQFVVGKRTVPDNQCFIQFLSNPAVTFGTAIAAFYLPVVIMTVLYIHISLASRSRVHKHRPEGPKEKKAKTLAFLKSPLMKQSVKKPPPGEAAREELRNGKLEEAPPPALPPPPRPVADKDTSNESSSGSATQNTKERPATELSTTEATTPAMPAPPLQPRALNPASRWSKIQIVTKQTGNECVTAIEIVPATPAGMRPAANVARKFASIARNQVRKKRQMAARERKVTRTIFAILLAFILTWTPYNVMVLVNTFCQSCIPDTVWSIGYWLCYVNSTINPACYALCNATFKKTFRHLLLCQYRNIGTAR

Work on `COc1cc(S(=O)(=O)CCC(=O)N2CC3CCC(C2)N3c2ccc(C#N)cn2)ccc1F` [Example 3, 6-(3-(3-((4-fluoro-3-methoxyphenyl)sulfonyl)propanoyl)-3,8-diazabicyclo[3.2.1]octan-8-yl)nicotinonitrile] yielded an IC50 (human M4 receptor) of 100 to 1000 nM, an IC50 (human M2 receptor; [1]) greater than 10000 nM and an IC50 (human M3 receptor) of 100 to 1000 nM. It also gave an IC50 (human M1 receptor; [2]) of less than 10 nM.

`COc1cccc(S(=O)(=O)CCC(=O)N2CC3CCC(C2)N3c2ccc(C#N)c(F)c2)c1` [Example 20, 2-fluoro-4-{3-[3-(3-methoxybenzenesulfonyl)propanoyl]-3,8-diazabicyclo [3.2.1]octan-8-yl}benzonitrile] showed an IC50 (human M1 receptor) of 10 to 100 nM.

Work on `COc1ccccc1S(=O)(=O)CCC(=O)N1CC2CCC(C1)N2c1ccc(C#N)cn1` [Example 12, 6-{3-[3-(2-methoxybenzenesulfonyl)propanoyl]-3,8-diazabicyclo [3.2.1]octan-8-yl}pyridine-3-carbonitrile] yielded an IC50 (human M1 receptor) of 10 to 100 nM.

`N#Cc1ccc(N2C3CCC2CN(C(=O)CCS(=O)(=O)c2ccccc2C(F)(F)F)C3)nc1` [Example 29, 6-(3-(3-((2-(trifluoromethyl)phenyl)sulfonyl)propanoyl)-3,8-diazabicyclo[3.2.1]octan-8-yl)nicotinonitrile] gave an IC50 (human M1 receptor) of 100 to 1000 nM.

For `Cc1c(F)cccc1S(=O)(=O)CCC(=O)N1CC2CCC(C1)N2c1ccc(C#N)cn1` [Example 24, 6-{3-[3-(3-fluoro-2-methylbenzenesulfonyl)propanoyl]-3,8-diazabicyclo [3.2.1]octan-8-yl}pyridine-3-carbonitrile], the IC50 (human M4 receptor) was 100 to 1000 nM, the IC50 (human M2 receptor; [1]) was 1000 to 10000 nM and the IC50 (human M3 receptor) was 100 to 1000 nM. It also gave an IC50 (human M1 receptor; [2]) of less than 10 nM.

`N#Cc1ccc(N2C3CCC2CN(C(=O)CCS(=O)(=O)c2ccccc2C2CC2(F)F)C3)nc1` (racemic) [Example 5, 6-(3-(3-((2-(2,2-difluorocyclopropyl)phenyl)-sulfonyl)-propanoyl)-3,8-diazabicyclo[3.2.1]octan-8-yl)nicotinonitrile] was tested, and the IC50 (human M1 receptor) was 10 to 100 nM.

`N#Cc1ccc(N2C3CCC2CN(C(=O)CCS(=O)(=O)c2ccccc2[C@H]2CC2(F)F)C3)nc1` (single isomer, unassigned) [Example 35] was tested, and the IC50 (human M4 receptor; CHO-K1 cells expressing human M4 receptor with aequorin, acetylcholine at EC80, read-out: M4 IC50) was 10 to 100 nM, the IC50 (human M2 receptor) was 10 to 100 nM and the IC50 (human M3 receptor; CHO-K1 cells expressing human M3 receptor with aequorin, acetylcholine at EC80, read-out: M3 IC50) was 100 to 1000 nM. For the same compound, the IC50 (human M1 receptor; [2]) was less than 10 nM.

`CC(C)(O)c1cc(S(=O)(=O)CCC(=O)N2CC3CCC(C2)N3c2ccc(C#N)cn2)ccc1F` [Example 6, 6-(3-(3-((4-fluoro-3-(2-hydroxypropan-2-yl)phenyl)-sulfonyl)propanoyl)-3,8-diazabicyclo[3.2.1]octan-8-yl)nicotinonitrile] showed an IC50 (human M1 receptor; [2]) of 1000 to 10000 nM.

With `Cc1ccc(F)cc1S(=O)(=O)CCC(=O)N1CC2CCC(C1)N2c1ccc(C#N)cn1` [Example 32, 6-(3-(3-((5-fluoro-2-methylphenyl)sulfonyl)propanoyl)-3,8-diazabicyclo [3.2.1]octan-8-yl)nicotinonitrile] the IC50 (human M1 receptor) was 100 to 1000 nM.

`N#Cc1ccc(N2C3CCC2CN(C(=O)CCS(=O)(=O)c2ncccc2C2CC2)C3)nc1` [Example 23, 6-(3-{3-[(3-cyclopropylpyridin-2-yl)sulfonyl]propanoyl}-3,8-diazabicyclo[3.2.1]octan-8-yl)pyridine-3-carbonitrile] was tested, and the IC50 (human M1 receptor) was 100 to 1000 nM.

`N#Cc1ccc(N2C3CCC2CN(C(=O)CCS(=O)(=O)c2cccc(Br)c2)C3)nc1` [Example 22, 6-{3-[3-(3-bromobenzenesulfonyl)propanoyl]-3,8-diazabicyclo [3.2.1]octan-8-yl}pyridine-3-carbonitrile] gave an IC50 (human M1 receptor) of 100 to 1000 nM.

In the case of `COc1cccc(S(=O)(=O)CCC(=O)N2CC3CCC(C2)N3c2ccc(C(F)(F)F)cn2)c1` [Example 16, 3-(3-methoxybenzenesulfonyl)-1-{8-[5-(trifluoromethyl)pyridin-2-yl]-3,8-diazabicyclo[3.2.1]octan-3-yl}propan-1-one], the IC50 (human M1 receptor) is reported as 100 to 1000 nM.

In the case of `COc1cccc(S(=O)(=O)CCC(=O)N2CC3CCC(C2)N3c2ccc(C)nc2)c1` [Example 10, 3-(3-methoxybenzenesulfonyl)-1-[8-(6-methylpyridin-3-yl)-3,8-diazabicyclo[3.2.1]octan-3-yl]propan-1-one], the IC50 (human M1 receptor; [2]) is reported as 1000 to 10000 nM.

Compound `Cc1cc(F)cc(S(=O)(=O)CCC(=O)N2CC3CCC(C2)N3c2ccc(C#N)cn2)c1` [Example 33, 6-(3-(3-((3-fluoro-5-methylphenyl)sulfonyl)propanoyl)-3,8-diazabicyclo [3.2.1]octan-8-yl)nicotinonitrile] has an IC50 (human M1 receptor) of 100 to 1000 nM.

In the case of `N#Cc1ccc(N2C3CCC2CN(C(=O)CCS(=O)(=O)c2cccc(OC4CC4)c2)C3)nc1` [Example 21, 6-{3-[3-(3-cyclopropoxybenzenesulfonyl)propanoyl]-3,8-diazabicyclo [3.2.1]octan-8-yl}pyridine-3-carbonitrile], the IC50 (human M1 receptor) is reported as 100 to 1000 nM.

For `COc1cccc(S(=O)(=O)CCC(=O)N2CC3CCC(C2)N3c2ccc(C(F)(F)F)nn2)c1` [Example 17, 3-(3-methoxybenzenesulfonyl)-1-{8-[6-(trifluoromethyl)pyridazin-3-yl]-3,8-diazabicyclo[3.2.1]octan-3-yl}propan-1-one], the IC50 (human M1 receptor) was 100 to 1000 nM.

For `N#Cc1ccc(N2C3CCC2CN(C(=O)CCS(=O)(=O)c2cc(F)cc(F)c2)C3)nc1` [Example 8, 6-{3-[3-(3,5-difluorobenzenesulfonyl)propanoyl]-3,8-diazabicyclo [3.2.1]octan-8-yl}pyridine-3-carbonitrile], the IC50 (human M1 receptor) was 10 to 100 nM.

With `N#Cc1ccc(N2C3CCC2CN(C(=O)CCS(=O)(=O)c2ccccc2Br)C3)nc1` [Example 28, 6-(3-(3-((2-bromophenyl)sulfonyl)propanoyl)-3,8-diazabicyclo [3.2.1]octan-8-yl)nicotinonitrile] the IC50 (human M1 receptor) was 100 to 1000 nM.

`N#Cc1ccc(N2C3CCC2CN(C(=O)CCS(=O)(=O)c2cccc(F)c2C2CC2)C3)nc1` [Example 4, 6-(3-(3-((2-cyclopropyl-3-fluorophenyl)sulfonyl)-propanoyl)-3,8-diazabicyclo[3.2.1]octan-8-yl)nicotinonitrile] was tested, and the IC50 (human M1 receptor; [2]) was less than 10 nM.

`COc1cccc(S(=O)(=O)CCC(=O)N2CC3CCC(C2)N3c2ccc(C#N)cn2)c1` [Example 2, 6-(3-(3-((3-methoxyphenyl)sulfonyl)propanoyl)-3,8-diazabicyclo[3.2.1]octan-8-yl)nicotinonitrile] gave an IC50 (human M4 receptor) of 100 to 1000 nM, an IC50 (human M2 receptor; [1]) greater than 10000 nM and an IC50 (human M3 receptor) of 100 to 1000 nM. For the same compound, the IC50 (human M1 receptor) was 10 to 100 nM.

For `COc1ccc(F)cc1S(=O)(=O)CCC(=O)N1CC2CCC(C1)N2c1ccc(C#N)cn1` [Example 13, 6-{3-[3-(5-fluoro-2-methoxybenzenesulfonyl)propanoyl]-3,8-diazabicyclo [3.2.1]octan-8-yl}pyridine-3-carbonitrile], the IC50 (human M1 receptor) was 10 to 100 nM.

Reference: US11752149B2, “Muscarinic acetylcholine M1 receptor antagonists” (Pipeline Therapeutics, Inc., priority 2019, dated 2023)
